Measured values reported in PubChem BioAssay AID1963961 (Molecular Pharmacology Branch, DTP, NCI, 2024).

Tested on: K98450-129-R-PDC multicell spheroids, viability
Test: Anticancer human tumor K98450-129-R-PDC patient-derived colon adenocarcinoma cell line growth inhibition [PI3K]
Settings: for IC50: curve of first compound; for viability, T/C: stronger effect = lower value
From the text: Combinatorial screen of targeted agents with the PI3K inhibitors inavolisib, alpelisib, duvelisib, and copanlisib in multi-cell type tumor spheroids
A high-throughput screen of multi-cell type tumor spheroids was designed to identify active combinations of targeted small molecules and PI3K pathway inhibitors. Complex spheroids include a stromal component modeled by human endothelial cells (HUVEC) and fibroblasts modeled by human mesenchymal stem cells (MSCs). The concentration ranges selected for each drug and investigational agent were based upon clinically achievable concentrations if the clinical Cmax of the agent was known.
Compounds. The drugs and investigational agents: inavolisib (NSC800729), alpelisib (NSC765974), duvelisib (NSC772469), copanlisib (NSC816437), ipatasertib (NSC767898), afuresertib (NSC778305), talazoparib (NSC767125), sapanisertib (NSC764658), selumetinib (NSC741078), tovorafenib (DAY101, NSC766906), vemurafenib (NSC761431), ravoxertinib (NSC781343), sotorasib (NSC818433), MRTX1133 (NSC 836407), abemaciclib (NSC 768073), palbociclib (NSC758247), venetoclax (NSC 766270), SY5609 (NSC837396), enzalutamide (NSC755605), and darolutamide (NSC825331), were obtained from the National Cancer Institute (NCI) Developmental Therapeutics Program Chemical Repository. The FDA-approved anticancer drug set is available from the NCI Developmental Therapeutics Program. […] The stock solutions were prepared in dimethyl sulfoxide (DMSO, Sigma-Aldrich, St. Louis, MO, cat. D2650) at 800-fold the tested concentration and stored at -70 degrees C prior to their use. All drugs and investigational agents were tested over a range starting from a high concentration at or near the clinical Cmax and decreasing in half-log increments. If the clinical Cmax for an agent had not been determined, the highest concentration tested was 10 microM.
Cell Culture. All cells were maintained in an incubator at 37 degrees C and 5% CO2 with 95% humidity. The PDC lines were cultured according to standard operating procedures established by the NCI PDMR (https://pdmr.cancer.gov/sops/default.htm). All PDCs were thawed and cultured in Matrigel-coated flasks prepared with a working solution of 1X Ham's F-12 nutrient mix, without supplementation (Invitrogen, Waltham, MA, cat. 11765054), 100 U/mL penicillin-streptomycin (Invitrogen, cat. 15140122), and 2.5% Matrigel (Corning Inc., Corning, NY, cat. 354248) for the first three passages. The 354836-022-R-J1-PDC, 475296-252-R-J1-PDC, and 997726-040-R-J2-PDC lines were cultured in 6A media, which includes advanced DMEM/F-12 (Thermo Fisher Scientific, cat. 12634028), 10 mM HEPES (Thermo Fisher Scientific, cat. 15630080), 1X GlutaMAX supplement (Thermo Fisher Scientific, cat. 35050061), 0.1 mg/mL primocin (InvivoGen, San Diego, CA, cat. ant-pm-2), 10% defined fetal bovine serum, heat inactivated (HyClone Laboratories Inc., Logan, UT, cat. SH30070.03HI), 50% L-WRN conditioned media (ATCC, cat. CRL-3276), 1.25 mM N-Acetyl-L-cysteine (Sigma-Aldrich, cat. A9165), 10 mM nicotinamide (Sigma-Aldrich, cat. N0636), 1X B-27 supplement (Thermo Fisher Scientific, cat. 17504044), 1X N-2 supplement (Thermo Fisher Scientific, cat. 17502048), and 10 microM Y-27632 dihydrochloride (Tocris Bioscience, Bristol, United Kingdom, cat. 1254). The 624824-186-R-J2-PDC line was cultured in 6C/Colon 1B media, which includes all 6A media components plus 50 ng/mL human EGF recombinant protein (Thermo Fisher Scientific, cat. PHG0311). […]

[1] = second compound 0.0316 µM, first compound 0.0316 µM
[2] = second compound 0.0316 µM, first compound 0.1 µM
[3] = second compound 0.0316 µM, first compound 0.316 µM
[4] = second compound 0.0316 µM, first compound 1 µM
[5] = second compound 0.0316 µM, first compound 3.16 µM
[6] = second compound 0.0316 µM, first compound 10 µM
[7] = second compound 0.1 µM, first compound 0.0316 µM
[8] = second compound 0.1 µM, first compound 0.1 µM
[9] = second compound 0.1 µM, first compound 0.316 µM
[10] = second compound 0.1 µM, first compound 1 µM
[11] = second compound 0.1 µM, first compound 3.16 µM
[12] = second compound 0.1 µM, first compound 10 µM
[13] = second compound 0.316 µM, first compound 0.0316 µM
[14] = second compound 0.316 µM, first compound 0.1 µM
[15] = second compound 0.316 µM, first compound 0.316 µM
[16] = second compound 0.316 µM, first compound 1 µM
[17] = second compound 0.316 µM, first compound 3.16 µM
[18] = second compound 0.316 µM, first compound 10 µM
[19] = second compound 1 µM, first compound 0.0316 µM
[20] = second compound 1 µM, first compound 0.1 µM
[21] = second compound 1 µM, first compound 0.316 µM
[22] = second compound 1 µM, first compound 1 µM
[23] = second compound 1 µM, first compound 3.16 µM
[24] = second compound 1 µM, first compound 10 µM
[25] = second compound 3.16 µM, first compound 0.0316 µM
[26] = second compound 3.16 µM, first compound 0.1 µM
[27] = second compound 3.16 µM, first compound 0.316 µM
[28] = second compound 3.16 µM, first compound 1 µM
[29] = second compound 3.16 µM, first compound 3.16 µM
[30] = second compound 3.16 µM, first compound 10 µM
[31] = second compound 10 µM, first compound 0.0316 µM
[32] = second compound 10 µM, first compound 0.1 µM
[33] = second compound 10 µM, first compound 0.316 µM
[34] = second compound 10 µM, first compound 1 µM
[35] = second compound 10 µM, first compound 3.16 µM
[36] = second compound 10 µM, first compound 10 µM
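Also: spheroids exposed to agents for seven days before read-out.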

Compound: Cn1ncc(Cl)c1-c1cc(C(=O)NC(CN)Cc2cccc(F)c2)sc1Cl (stereo unspecified) + Cc1nc(NC(=O)N2CCCC2C(N)=O)sc1-c1ccnc(C(C)(C)C(F)(F)F)c1
- IC50 (second compound 0.0316 µM): > 10 µM
- IC50 (second compound 0.1 µM): > 10 µM
- IC50 (second compound 0.316 µM): > 10 µM
- IC50 (second compound 1 µM): > 10 µM
- IC50 (second compound 3.16 µM): > 10 µM
- IC50 (second compound 10 µM): > 10 µM
- viability, T/C [1]: 97.8%
- viability, T/C [2]: 95%
- viability, T/C [3]: 109%
- viability, T/C [4]: 93.1%
- viability, T/C [5]: 88.9%
- viability, T/C [6]: 74.3%
- viability, T/C [7]: 109%
- viability, T/C [8]: 99.4%
- viability, T/C [9]: 99.7%
- viability, T/C [10]: 90.8%
- viability, T/C [11]: 89.2%
- viability, T/C [12]: 78.3%
- viability, T/C [13]: 101%
- viability, T/C [14]: 93.1%
- viability, T/C [15]: 91.9%
- viability, T/C [16]: 92.1%
- viability, T/C [17]: 91.3%
- viability, T/C [18]: 76.9%
- viability, T/C [19]: 94%
- viability, T/C [20]: 91%
- viability, T/C [21]: 97.1%
- viability, T/C [22]: 89.6%
- viability, T/C [23]: 91.7%
- viability, T/C [24]: 72.9%
- viability, T/C [25]: 82.9%
- viability, T/C [26]: 85.1%
- viability, T/C [27]: 86.8%
- viability, T/C [28]: 80.4%
- viability, T/C [29]: 86.2%
- viability, T/C [30]: 63.8%
- viability, T/C [31]: 66.9%
- viability, T/C [32]: 69.6%
- viability, T/C [33]: 74.1%
- viability, T/C [34]: 72.5%
- viability, T/C [35]: 78.5%
- viability, T/C [36]: 52.2%

Compound: CNC(=O)c1ccc(N2C(=S)N(c3ccc(C#N)c(C(F)(F)F)c3)C(=O)C2(C)C)cc1F + CC(Nc1ncnc2nc[nH]c12)c1cc2cccc(Cl)c2c(=O)n1-c1ccccc1
- IC50 (second compound 0.0316 µM): > 10 µM
- IC50 (second compound 0.1 µM): > 10 µM
- IC50 (second compound 0.316 µM): > 10 µM
- IC50 (second compound 1 µM): > 10 µM
- IC50 (second compound 3.16 µM): > 10 µM
- IC50 (second compound 10 µM): > 10 µM
- viability, T/C [1]: 109%
- viability, T/C [2]: 100%
- viability, T/C [3]: 104%
- viability, T/C [4]: 83.1%
- viability, T/C [5]: 104%
- viability, T/C [6]: 88.9%
- viability, T/C [7]: 116%
- viability, T/C [8]: 94%
- viability, T/C [9]: 106%
- viability, T/C [10]: 108%
- viability, T/C [11]: 88.8%
- viability, T/C [12]: 101%
- viability, T/C [13]: 104%
- viability, T/C [14]: 99.3%
- viability, T/C [15]: 97.2%
- viability, T/C [16]: 92.3%
- viability, T/C [17]: 112%
- viability, T/C [18]: 109%
- viability, T/C [19]: 92.8%
- viability, T/C [20]: 90.7%
- viability, T/C [21]: 95.5%
- viability, T/C [22]: 102%
- viability, T/C [23]: 99.8%
- viability, T/C [24]: 97.1%
- viability, T/C [25]: 83.1%
- viability, T/C [26]: 95.4%
- viability, T/C [27]: 82%
- viability, T/C [28]: 83.1%
- viability, T/C [29]: 87.6%
- viability, T/C [30]: 96.6%
- viability, T/C [31]: 76.8%
- viability, T/C [32]: 93.4%
- viability, T/C [33]: 83%
- viability, T/C [34]: 96.1%
- viability, T/C [35]: 109%
- viability, T/C [36]: 88%

Compound: Cn1nccc1Nc1nccc(-c2ccn(C(CO)c3ccc(Cl)c(F)c3)c(=O)c2)n1 (stereo unspecified) + CC(Nc1ncnc2nc[nH]c12)c1cc2cccc(Cl)c2c(=O)n1-c1ccccc1
- IC50 (second compound 0.0316 µM): > 10 µM
- IC50 (second compound 0.1 µM): > 10 µM
- IC50 (second compound 0.316 µM): > 10 µM
- IC50 (second compound 1 µM): > 10 µM
- IC50 (second compound 3.16 µM): > 10 µM
- IC50 (second compound 10 µM): > 10 µM
- viability, T/C [1]: 110%
- viability, T/C [2]: 102%
- viability, T/C [3]: 103%
- viability, T/C [4]: 94.5%
- viability, T/C [5]: 88.9%
- viability, T/C [6]: 85.8%
- viability, T/C [7]: 106%
- viability, T/C [8]: 100%
- viability, T/C [9]: 91.3%
- viability, T/C [10]: 93.5%
- viability, T/C [11]: 94.6%
- viability, T/C [12]: 87%
- viability, T/C [13]: 94.5%
- viability, T/C [14]: 115%
- viability, T/C [15]: 91.6%
- viability, T/C [16]: 92.7%
- viability, T/C [17]: 96.6%
- viability, T/C [18]: 56.8%
- viability, T/C [19]: 89.5%
- viability, T/C [20]: 103%
- viability, T/C [21]: 94.6%
- viability, T/C [22]: 85.4%
- viability, T/C [23]: 94%
- viability, T/C [24]: 81.4%
- viability, T/C [25]: 79.2%
- viability, T/C [26]: 86.2%
- viability, T/C [27]: 95%
- viability, T/C [28]: 93.8%
- viability, T/C [29]: 106%
- viability, T/C [30]: 84.6%
- viability, T/C [31]: 90%
- viability, T/C [32]: 80%
- viability, T/C [33]: 78.9%
- viability, T/C [34]: 87.2%
- viability, T/C [35]: 80.7%
- viability, T/C [36]: 66.3%
